In PMC9315260, “Diarylamine-Guided Carboxamide Derivatives: Synthesis, Biological Evaluation, and Potential Mechanism of Action” (Frontiers in Chemistry, 2022):

Key:
[1] = tested on: HepG2 (human hepatocellular liver carcinoma cell line); assay: MTT in vitro cytotoxicity assay, HepG2; assay type: cell-based; settings: for IC50: mean ± S.D.; for inhibition at 100 µM: HepG2, at 100 µM, read-out: Cell growth inhibition (%) HepG2
Description: (§1) The lead molecules A2 and all newly prepared diarylamine derivatives B1-13 and C1-11 were evaluated for their in vitro cytotoxic effects against SGC-7901, A875, HepG2 and MARC145 cell lines by the classical MTT [3-(4,5-dimethylthiazol-2-yl)-2,5-diphenyl tetrazolium bromide] assay ([Alley et al., 1988]; [Ke et al., 2012]; [Shi et al., 2012]; [Yu et al., 2015]; [Ke et al., 2019]; [Xu et al., 2019]; [Huang et al., 2021]) using 5-FU (5-Fluorouracil) as a control.
(§2) The cytotoxicity of target compounds was determined with MTT assay ([Alley et al., 1988]; [Ke et al., 2012]; [Shi et al., 2012]; [Yu et al., 2015]; [Ke et al., 2019]; [Xu et al., 2019]; [Huang et al., 2021]). SGC-7901, A875, HepG2 and MARC145 cell lines were obtained from Hubei Biopesticide Engineering Research Centre. All data of the experiment were analyzed with SPSS software, and all assay were performed in triplicate on three independent experiments, and measurement data were expressed as the mean ± S.D.
(§3) The in vitro cytotoxicity of the synthesized compounds against different cell lines (SGC-7901, A875, HepG2 and MARC145) was measured with MTT assay. All the data of the experiment were analyzed with SPSS software, and the 50% inhibitory concentrations (IC50) of each compound for the different cell lines were determined. A control was run for each test, and all assays were performed in triplicate on three independent experiments, and measurement data were expressed as the mean ± S.D.

[2] = tested on: SGC-7901 (human gastric cancer cell line); assay: MTT in vitro cytotoxicity assay, SGC-7901; assay type: cell-based; settings: for IC50: mean ± S.D.; for inhibition at 100 µM: SGC-7901, at 100 µM, read-out: Cell growth inhibition (%) SGC-7901
Description: as §1, §2, §3

[3] = tested on: A875 (human melanoma cell line); assay: MTT in vitro cytotoxicity assay, A875; assay type: cell-based; settings: for IC50: mean ± S.D.; for inhibition at 100 µM: A875, at 100 µM, read-out: Cell growth inhibition (%) A875
Description: as §1, §2, §3

[4] = MTT in vitro cytotoxicity assay, MARC145; assay type: cell-based, African green monkey; settings: African green monkey, MARC145 cells (kidney cell line, subclone of MA-104), MTT, mean ± S.D.
Description: as §1, §2, §3

[5] = tested on: MARC145 (subclone of African green monkey kidney cell line MA-104); assay: MTT in vitro cytotoxicity assay, MARC145; assay type: cell-based; settings: Chlorocebus sabaeus, MARC145; at 100 µM; read-out: Cell growth inhibition (%) MARC145
Description: as §1, §2, §3

| Compound | IC50 ([1]; HepG2, Table 1, MTT) [µM] | IC50 ([2]; SGC-7901, Table 1, MTT) [µM] | IC50 ([3]; A875, Table 1, MTT) [µM] | IC50 ([4]; Table 1) [µM] | melting point [°C] | IC50 ([1]; HepG2, Table 3, MTT) [µM] | inhibition at 100 µM [1] [%] | IC50 ([2]; SGC-7901, Table 3, MTT) [µM] | inhibition at 100 µM [2] [%] | IC50 ([3]; A875, Table 3, MTT) [µM] | inhibition at 100 µM [3] [%] | inhibition at 100 µM [5] [%] | IC50 ([4]; Table 3) [µM] |
| --- | --- | --- | --- | --- | --- | --- | --- | --- | --- | --- | --- | --- | --- |
| NC(=O)c1ccccc1NC(=O)c1ccccc1Nc1cccc(C(F)(F)F)c1 [B1, N-(2-Carbamoylphenyl)-2-((3-(trifluoromethyl)phenyl)amino)benzamide] | > 100 | > 100 | > 100 | > 100 | 136 to 137 | – | – | – | – | – | – | – | – |
| CNC(=O)c1ccccc1NC(=O)c1ccccc1Nc1cccc(C(F)(F)F)c1 [B2, N-Methyl-2-(2-((3-(trifluoromethyl)phenyl)amino)benzamido)benzamide] | > 96 | > 96 | > 96 | > 96 | – | – | – | – | – | – | – | – | – |
| NC(=O)c1cc(F)cc(Br)c1NC(=O)c1ccccc1Nc1cccc(C(F)(F)F)c1 [B3, 3-Bromo-5-fluoro-2-(2-((3-(trifluoromethyl)phenyl)amino)benzamido)benzamide] | > 80 | 22.5 ± 4.04 | > 80 | 38 ± 0.81 | 198 to 199 | – | – | – | – | – | – | – | – |
| CNC(=O)c1cc(F)cc(Br)c1NC(=O)c1ccccc1Nc1cccc(C(F)(F)F)c1 [B4, 3-Bromo-5-fluoro-N-methyl-2-(2-((3-(trifluoromethyl)phenyl)amino)benzamido)benzamide] | > 78 | > 78 | > 78 | > 78 | 189 to 190 | – | – | – | – | – | – | – | – |
| Cc1cccc(C(N)=O)c1NC(=O)c1ccccc1Nc1cccc(C(F)(F)F)c1 [B5, N-(2-Carbamoyl-6-methylphenyl)-2-((3-(trifluoromethyl)phenyl)amino)benzamide] | > 97 | > 97 | > 97 | > 97 | – | – | – | – | – | – | – | – | – |
| CNC(=O)c1cccc(C)c1NC(=O)c1ccccc1Nc1cccc(C(F)(F)F)c1 [B6, N,3-Dimethyl-2-(2-((3-(trifluoromethyl)phenyl)amino)benzamido)benzamide] | > 94 | > 94 | > 94 | > 94 | – | – | – | – | – | – | – | – | – |
| NC(=O)c1ccc(Cl)cc1NC(=O)c1ccccc1Nc1cccc(C(F)(F)F)c1 [B7, N-(2-Carbamoyl-5-chlorophenyl)-2-((3-(trifluoromethyl)phenyl)amino)benzamide] | > 92 | > 92 | > 92 | > 92 | 176 to 177 | – | – | – | – | – | – | – | – |
| CNC(=O)c1ccc(Cl)cc1NC(=O)c1ccccc1Nc1cccc(C(F)(F)F)c1 [B8, 4-Chloro-N-methyl-2-(2-((3-(trifluoromethyl)phenyl)amino)benzamido)benzamide] | > 89 | > 89 | > 89 | > 89 | 152 to 153 | – | – | – | – | – | – | – | – |
| NC(=O)c1cc(Cl)ccc1NC(=O)c1ccccc1Nc1cccc(C(F)(F)F)c1 [B9, N-(2-Carbamoyl-4-chlorophenyl) -2-((3-(trifluoromethyl)phenyl)amino)benzamide] | > 92 | > 92 | > 92 | > 92 | – | – | – | – | – | – | – | – | – |
| CNC(=O)c1cc(Cl)ccc1NC(=O)c1ccccc1Nc1cccc(C(F)(F)F)c1 [B10, 5-Chloro-N-methyl-2-(2-((3-(trifluoromethyl)phenyl)amino)benzamido)benzamide] | 49.9 ± 9.26 | 39.4 ± 8.96 | > 89 | 38 ± 9.84 | 190 to 191 | – | – | – | – | – | – | – | – |
| NC(=O)c1c(Cl)cccc1NC(=O)c1ccccc1Nc1cccc(C(F)(F)F)c1 [B11, N-(2-Carbamoyl-3-chlorophenyl)-2-((3-(trifluoromethyl)phenyl)amino)benzamide] | > 92 | > 92 | > 92 | > 92 | 194 to 195 | – | – | – | – | – | – | – | – |
| CNC(=O)c1c(Cl)cccc1NC(=O)c1ccccc1Nc1cccc(C(F)(F)F)c1 [B12, 2-Chloro-N-methyl-6-(2-((3-(trifluoromethyl)phenyl)amino)benzamido)benzamide] | > 89 | > 89 | > 89 | > 89 | 178 to 179 | – | – | – | – | – | – | – | – |
| CNC(=O)c1cc(Cl)cc(Cl)c1NC(=O)c1ccccc1Nc1cccc(C(F)(F)F)c1 [B13, 3,5-Dichloro-N-methyl-2-(2-((3-(trifluoromethyl)phenyl)amino)benzamido)benzamide] | > 83 | > 83 | > 83 | > 83 | 180 to 181 | – | – | – | – | – | – | – | – |
| CC(C)c1ccc(NC(=O)c2ccccc2Nc2cccc(C(F)(F)F)c2)cc1 [C1, N-(4-Isopropylphenyl)-2-((3-(trifluoromethyl)phenyl)amino)benzamide] | – | – | – | – | 74 to 75 | > 100 | 42.7 ± 3.1 | 47 ± 9.74 | 72.3 ± 3.1 | > 100 | 43.1 ± 2 | 7.5 ± 2.3 | > 100 |
| CC(C)c1ccc(NC(=O)c2cccnc2Nc2cccc(C(F)(F)F)c2)cc1 [C2, N-(4-Isopropylphenyl)-2-((3-(trifluoromethyl)phenyl)amino)nicotinamide] | – | – | – | – | 161 to 162 | > 100 | 13.1 ± 2.3 | > 100 | 26.9 ± 1.8 | > 100 | 42 ± 2.5 | 15.8 ± 1.9 | > 100 |
| O=C(Nc1ccccc1C(F)(F)F)c1ccccc1Nc1cccc(C(F)(F)F)c1 [C3, N-(2-(Trifluoromethyl)phenyl)-2-((3-(trifluoromethyl)phenyl)amino)benzamide] | – | – | – | – | 82 to 83 | 24.2 ± 3.21 | 88.5 ± 3.2 | 29.7 ± 4.03 | 78.6 ± 2.9 | > 94 | 56.4 ± 2.5 | 23.5 ± 2.1 | > 94 |
| O=C(Nc1ccccc1C(F)(F)F)c1cccnc1Nc1cccc(C(F)(F)F)c1 [C4, N-(2-(Trifluoromethyl)phenyl)-2-((3-(trifluoromethyl)phenyl)amino)nicotinamide] | – | – | – | – | 139 to 140 | > 94 | 3.1 ± 1.2 | > 94 | 4.5 ± 0.4 | > 94 | 5.2 ± 1.5 | 0 | > 94 |
| O=C(Nc1ccc(C(F)(F)F)cc1)c1cccnc1Nc1cccc(C(F)(F)F)c1 [C8, N-(4-(Trifluoromethyl)phenyl)-2-((3-(trifluoromethyl)phenyl)amino)nicotinamide] | – | – | – | – | – | > 94 | 42.4 ± 2.6 | > 94 | 51.2 ± 3.5 | 55.6 ± 6.73 | 56.5 ± 3.1 | 65.8 ± 2.6 | 57.7 ± 8.87 |
| O=C(Nc1ccccn1)c1ccccc1Nc1cccc(C(F)(F)F)c1 [C9, N-(Pyridin-2-yl)-2-((3-(trifluoromethyl)phenyl)amino)benzamide] | – | – | – | – | 65 to 66 | 64.2 ± 3.89 | 75 ± 2.7 | 42 ± 7.95 | 80.5 ± 2.5 | > 112 | 30.3 ± 4.1 | 56.5 ± 3.3 | 64.7 ± 3.02 |
